ChEMBL document CHEMBL4422697, “Structural Characterization of Cranberry Arabinoxyloglucan Oligosaccharides” (J Nat Prod, 2019)
Calls of active or inactive are those of the source. The calls are words filed in the database; no cut-off is given here.

Experiments:
[1] = system: T47D; assay: Cytotoxicity against human T47D cells assessed as reduction in cell viability at 10 to 100 uM after 48 hrs by sulforhodamine B assay; format: cell-based
[2] = system: Escherichia coli; assay: Growth inhibition of Escherichia coli ATCC 35218 at 50 ug/ml relative to control; format: organism-based; conditions: in vivo
[3] = system: Aspergillus fumigatus; assay: Growth inhibition of Aspergillus fumigatus ATCC 204305 at 50 ug/ml relative to control; format: organism-based; conditions: in vivo
[4] = system: Mycobacterium intracellulare; assay: Growth inhibition of Mycobacterium intracellulare ATCC 23068 at 50 ug/ml relative to control; format: organism-based; conditions: in vivo
[5] = system: Plasmodium falciparum; assay: Growth inhibition of Plasmodium falciparum D6 at 15.9 ug/ml relative to control; format: organism-based; conditions: in vivo
[6] = system: Escherichia coli; assay: Antiadhesive activity against P-fimbriated Escherichia coli ATCC 700928 assessed as inhibition of bacterial adhesion to human HTB4 cells incubated for 30 mins in presence of [3H]uridine prior to infection measured after 1 hr by scintillation counting method; format: functional, organism-based
[7] = system: Cryptococcus neoformans; assay: Growth inhibition of Cryptococcus neoformans ATCC 90113 at 50 ug/ml relative to control; format: organism-based; conditions: in vivo
[8] = system: Staphylococcus aureus; assay: Growth inhibition of methicillin-[…] Staphylococcus aureus ATCC 33591 at 50 ug/ml relative to control; format: organism-based; conditions: in vivo
[9] = system: Nakaseomyces glabratus; assay: Growth inhibition of Candida glabrata ATCC 90030 at 50 ug/ml relative to control; format: organism-based; conditions: in vivo
[10] = system: Leishmania donovani; assay: Growth inhibition of Leishmania donovani at 80 ug/ml relative to control; format: organism-based; conditions: in vivo
[11] = system: Pseudomonas aeruginosa; assay: Growth inhibition of Pseudomonas aeruginosa ATCC 27853 at 50 ug/ml relative to control; format: organism-based; conditions: in vivo
[12] = system: Candida albicans; assay: Growth inhibition of Candida albicans ATCC 90028 at 50 ug/ml relative to control; format: organism-based; conditions: in vivo
[13] = system: Staphylococcus aureus; assay: Growth inhibition of Staphylococcus aureus ATCC 29213 at 50 ug/ml relative to control; format: organism-based; conditions: in vivo
[14] = system: Pichia kudriavzevii; assay: Growth inhibition of Candida krusei ATCC 6258 at 50 ug/ml relative to control; format: organism-based; conditions: in vivo
[15] = system: MDA-MB-231; assay: Cytotoxicity against human MDA-MB-231 cells assessed as reduction in cell viability at 10 to 100 uM after 48 hrs by sulforhodamine B assay; format: cell-based; conditions: mda-mb-231, 48 h

SMILES	Activity [1]	growth inhibition (GI) [2]	growth inhibition (GI) [3]	growth inhibition (GI) [4]	growth inhibition (GI) [5]	inhibition [6]	growth inhibition (GI) [7]	growth inhibition (GI) [8]	growth inhibition (GI) [9]	growth inhibition (GI) [10]	growth inhibition (GI) [11]	growth inhibition (GI) [12]	growth inhibition (GI) [13]	growth inhibition (GI) [14]	Activity [15]
OC[C@@H]1O[C@@H](O[C@H]2[C@@H](OC[C@H]3O[C@@H](O)[C@H](O)[C@@H](O)[C@@H]3O[C@@H]3O[C@H](CO)[C@@H](O[C@@H]4O[C@H](COC5OC[C@@H](O)[C@H](O)[C@H]5O[C@@H]5O[C@@H](CO)[C@H](O)[C@H]5O)[C@@H](O[C@@H]5O[C@H](CO)[C@@H](O)[C@H](O)[C@H]5O)[C@H](O)[C@H]4O)[C@H](O)[C@H]3O)OC[C@@H](O)[C@@H]2O)[C@H](O)[C@H]1O (single isomer, unassigned)	Non-Toxic	< 50%	< 50%	< 50%	< 50%	inactive	< 50%	< 50%	< 50%	< 50%	< 50%	< 50%	< 50%	< 50%	Non-Toxic
OC[C@@H]1O[C@@H](O[C@H]2[C@@H](OC[C@H]3O[C@@H](O)[C@H](O)[C@@H](O)[C@@H]3O[C@@H]3O[C@H](CO)[C@@H](O[C@@H]4O[C@H](COC5OC[C@@H](O)[C@H](O)[C@H]5O)[C@@H](O[C@@H]5O[C@H](CO)[C@@H](O)[C@H](O)[C@H]5O)[C@H](O)[C@H]4O)[C@H](O)[C@H]3O)OC[C@@H](O)[C@@H]2O)[C@H](O)[C@H]1O (single isomer, unassigned)	Non-Toxic	< 50%	< 50%	< 50%	< 50%	inactive	< 50%	< 50%	< 50%	< 50%	< 50%	< 50%	< 50%	< 50%	Non-Toxic
